ChEMBL document CHEMBL1201862, “PubChem BioAssay data set” (2004)
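Assay format: 96-well plates, 48-hour exposure. GI50 is the concentration that inhibits growth by half.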 Active and inactive are the calls of the source. Rule as the data show it: active = GI50 up to about 1.1 µM and inactive = higher.

Legend:
Assay in all cases: NCI-60 cell line screen, 48 h
SW-620 = test system: SW-620
NCI-H522 = test system: NCI-H522
SF-539 = test system: SF-539
MDA-MB-435 = test system: MDA-MB-435
ACHN = test system: ACHN
DU-145 = test system: DU-145
COLO 205 = test system: COLO 205
MDA-N = test system: MDA-N
EKVX = test system: EKVX
HCC 2998 = test system: HCC 2998
SN12C = test system: SN12C
UACC-62 = test system: UACC-62
CCRF-CEM = test system: CCRF-CEM
NCI-H460 = test system: NCI-H460
IGROV-1 = test system: IGROV-1
NCI-H23 = test system: NCI-H23
SK-OV-3 = test system: SK-OV-3
PC-3 = test system: PC-3
MCF7 = test system: MCF7

Measured: GI50

O=C(SCc1cccc2ccccc12)c1ccc(Cl)cc1
inactive: SW-620 > 100 µM | NCI-H522 45.8 µM | SF-539 > 100 µM | MDA-MB-435 97.1 µM | ACHN > 100 µM | DU-145 > 100 µM | COLO 205 82.2 µM | MDA-N > 100 µM | EKVX 80 µM | HCC 2998 > 100 µM | SN12C > 100 µM | UACC-62 > 100 µM | CCRF-CEM > 100 µM | NCI-H460 49 µM | IGROV-1 > 100 µM | NCI-H23 95.3 µM | SK-OV-3 > 100 µM | PC-3 > 100 µM | MCF7 > 100 µM

Nc1nc(-c2cc(-c3cccc4ccccc34)nc(N)n2)cc(-c2cccc3ccccc23)n1
inactive: SW-620 > 100 µM | NCI-H522 > 100 µM | SF-539 > 100 µM | MDA-MB-435 > 100 µM | ACHN > 100 µM | DU-145 > 100 µM | COLO 205 > 100 µM | MDA-N > 100 µM | EKVX > 100 µM | HCC 2998 > 100 µM | SN12C > 100 µM | UACC-62 > 100 µM | CCRF-CEM > 100 µM | NCI-H460 > 100 µM | IGROV-1 > 100 µM | NCI-H23 > 100 µM | SK-OV-3 > 100 µM | PC-3 > 100 µM | MCF7 > 100 µM

CC1(Br)Cc2ccccc2C1=O (centres undefined)
inactive: SW-620 4.75 µM | NCI-H522 4.14 µM | SF-539 4.98 µM | MDA-MB-435 4.47 µM | ACHN 4.17 µM | DU-145 13.7 µM | COLO 205 4.35 µM | MDA-N 3.92 µM | EKVX 3.27 µM | HCC 2998 > 100 µM | SN12C 7.59 µM | UACC-62 1.29 µM | CCRF-CEM 1.75 µM | NCI-H460 > 10 µM | IGROV-1 4.12 µM | NCI-H23 5.41 µM | SK-OV-3 9.06 µM | PC-3 10.3 µM | MCF7 3.73 µM

O=C1C(=Cc2ccccc2[N+](=O)[O-])N=C(c2ccccc2)N1n1c(-c2ccccc2)nc2ccccc2c1=O
inactive: SW-620 32.7 µM | NCI-H522 17 µM | SF-539 25.8 µM | MDA-MB-435 32.4 µM | ACHN 30.8 µM | DU-145 33.5 µM | COLO 205 31.3 µM | MDA-N 36.4 µM | EKVX 33.4 µM | HCC 2998 35.8 µM | SN12C 23 µM | UACC-62 19.1 µM | CCRF-CEM 31 µM | NCI-H460 31.3 µM | IGROV-1 32.2 µM | NCI-H23 20.2 µM | SK-OV-3 40.7 µM | PC-3 27.3 µM | MCF7 17.5 µM

CCCC[Si](CCCC)(CCCC)O[C@@H](/C=C/C(=O)OCC)[C@H](Cc1ccccc1)O[Si](CCCC)(CCCC)CCCC
inactive: SW-620 > 100 µM | NCI-H522 > 100 µM | SF-539 > 100 µM | MDA-MB-435 > 100 µM | ACHN > 100 µM | DU-145 > 100 µM | COLO 205 > 100 µM | MDA-N > 100 µM | EKVX > 100 µM | HCC 2998 > 100 µM | SN12C > 100 µM | UACC-62 > 100 µM | CCRF-CEM > 100 µM | NCI-H460 > 100 µM | IGROV-1 > 100 µM | NCI-H23 > 100 µM | SK-OV-3 > 100 µM | PC-3 > 100 µM | MCF7 > 100 µM

C/C(=N/NC(=S)Nc1cccc(Cl)c1)c1ccccn1
inactive: MDA-MB-435 1.31 µM | HCC 2998 1.82 µM
active: SW-620 0.0324 µM | NCI-H522 0.06 µM | SF-539 0.593 µM | ACHN 0.194 µM | DU-145 0.532 µM | COLO 205 0.0372 µM | MDA-N 0.776 µM | EKVX 0.0977 µM | SN12C 0.255 µM | UACC-62 0.202 µM | CCRF-CEM < 0.0174 µM | NCI-H460 0.357 µM | IGROV-1 0.0395 µM | NCI-H23 0.463 µM | SK-OV-3 0.265 µM | PC-3 0.0255 µM | MCF7 0.0151 µM

CC1(C)OC2C(CO)OC(n3ccc(=O)[nH]c3=O)C2O1 (centres undefined)
inactive: SW-620 > 100 µM | NCI-H522 > 100 µM | SF-539 > 100 µM | MDA-MB-435 > 100 µM | ACHN > 100 µM | DU-145 > 100 µM | COLO 205 > 100 µM | MDA-N > 100 µM | EKVX > 100 µM | HCC 2998 > 100 µM | SN12C > 100 µM | UACC-62 > 100 µM | CCRF-CEM > 100 µM | NCI-H460 > 100 µM | IGROV-1 > 100 µM | NCI-H23 > 100 µM | SK-OV-3 > 100 µM | PC-3 > 100 µM | MCF7 > 100 µM

Cc1nn(C(=O)c2ccc(Cl)cc2)c2c1C(c1ccccc1O)SC(=N)N2 (centres undefined)
inactive: SW-620 > 10 µM | NCI-H522 > 10 µM | SF-539 > 10 µM | MDA-MB-435 > 10 µM | ACHN > 10 µM | DU-145 > 10 µM | COLO 205 > 10 µM | MDA-N > 10 µM | EKVX > 10 µM | HCC 2998 > 10 µM | SN12C > 10 µM | UACC-62 > 10 µM | CCRF-CEM > 10 µM | NCI-H460 > 10 µM | IGROV-1 > 10 µM | NCI-H23 > 10 µM | SK-OV-3 > 10 µM | PC-3 > 10 µM | MCF7 > 10 µM

Cc1nn(C(=O)c2ccncc2)c2c1C(c1cccc([N+](=O)[O-])c1)SC(=N)N2 (centres undefined)
inactive: SW-620 > 10 µM | NCI-H522 > 10 µM | SF-539 > 10 µM | MDA-MB-435 > 10 µM | ACHN > 10 µM | DU-145 > 10 µM | COLO 205 > 10 µM | MDA-N > 10 µM | EKVX > 10 µM | HCC 2998 > 10 µM | SN12C > 10 µM | UACC-62 > 10 µM | CCRF-CEM > 10 µM | NCI-H460 > 10 µM | IGROV-1 > 10 µM | NCI-H23 > 10 µM | SK-OV-3 > 10 µM | PC-3 > 10 µM | MCF7 > 10 µM

O=[N+]([O-])c1ccc(/C=C\c2ccc3c(c2)OCO3)c([N+](=O)[O-])c1
inactive: SW-620 17.1 µM | NCI-H522 12.7 µM | SF-539 20 µM | MDA-MB-435 8.43 µM | ACHN 16.6 µM | DU-145 18.3 µM | COLO 205 18.4 µM | MDA-N 5.52 µM | EKVX 13 µM | HCC 2998 14.5 µM | SN12C 17.5 µM | UACC-62 18.7 µM | CCRF-CEM 18.2 µM | NCI-H460 19.5 µM | IGROV-1 12.2 µM | NCI-H23 21.7 µM | SK-OV-3 18.7 µM | PC-3 24.8 µM | MCF7 1.86 µM

CCOC(=O)c1[nH]c(Br)c(-c2ccc(Br)cc2)c1Br
inactive: ACHN 1.13 µM | DU-145 1.66 µM | EKVX 7.18 µM | HCC 2998 5.79 µM | CCRF-CEM 8.15 µM | NCI-H460 5.25 µM | NCI-H23 2.14 µM | SK-OV-3 1.69 µM | MCF7 1.87 µM
active: SW-620 0.555 µM | NCI-H522 0.378 µM | SF-539 0.441 µM | MDA-MB-435 0.186 µM | COLO 205 0.385 µM | MDA-N 0.213 µM | SN12C 0.45 µM | UACC-62 0.234 µM | IGROV-1 0.601 µM | PC-3 0.705 µM
